Results as given in ChEMBL document CHEMBL3507680, “University of Dundee, Gates Library screen for HepG2 cell viability”.

test: Human HepG2 cell viability assay in 384 well format; type: toxicity, cell-based; parameters: dose 125 nL, time 70.5 hour; concentration not given beside the values; details: HepG2 cells, read-out: Inhibition

Point of comparison: `CN(CC1CC1)C(=O)CN(Cc1cccc(O)c1)C1CCC(O)CC1` (stereo unspecified), cytotoxicity at 70.5 h -6.77%. Against it:
- COc1nc2c(cc1C(=O)NC(C)Cc1cnccn1)CCC2 (stereo unspecified) — lower, -7.71%
- CCC(CCNCc1cnc(C2CCC2)s1)N1CCCC1=O (stereo unspecified) — higher, 26.8%
- COCC(=O)N[C@H]1C[C@@H](Cc2cc(CN3CCCCC3)on2)C1(C)C — higher, 24.1%
- O=C(Cc1cccc(F)c1F)N1CCOC(c2cccc(O)c2)C1 (stereo unspecified) — higher, -2.65%
- c1nc2c(c(C3CC3)n1)CCN(Cc1ccc3c(c1)OCO3)CC2 — higher, -4.69%
- Cc1nc(C(C)C)sc1C(=O)N(C)CCCc1cnn(C)c1 — lower, -7.28%
- c1ccc(-c2nc(CN3CCn4c(nnc4C4CC4)C3)no2)cc1 — lower, -9.58%
- CCc1nc(CN(C)C2CCN(CCc3ccccn3)C2)no1 (stereo unspecified) — higher, 3.72%
- CNC(=O)CCNC(=O)CCc1c(C)nc2cc(O)nn2c1C — higher, -4.97%
- Cc1ncoc1C(=O)N1C[C@@H]2COC[C@]2(c2nnc(C3CC3)o2)C1 — lower, -9.55%
- CCc1cc(CN(C)C(=O)CN2CC(c3ccccc3)CC2=O)on1 (stereo unspecified) — higher, 3.32%
- O=C(O)[C@@H]1OCC(=O)N(Cc2cccc(Cl)c2)[C@@H]1c1ccccc1 — higher, 5.58%
- CC(NCc1ccsc1)c1ccc(OCc2nccn2C)cc1 (stereo unspecified) — higher, -3.28%
- CNC(=O)[C@H]1C[C@@H]2CN(S(=O)(=O)c3cccc(F)c3)C[C@@H]2N1C — higher, 1.47%
- CC1CCN(C(=O)c2cn(-c3ccc(C(F)(F)F)cn3)nn2)CC1 — higher, -0.268%
- COC(=O)c1cccc(S(=O)(=O)NC(=O)c2ccccc2F)c1 — higher, -5.66%
- CC(C)c1nc(C2CCCN2CC(=O)Nc2ccc(Cl)cn2)no1 (stereo unspecified) — higher, 19.2%
- COC(=O)N1CC2(CCNCC2)c2cc(Cl)ccc21 — lower, -7.27%
- N#Cc1cccc(S(=O)(=O)N2CCCCC2CCN2CCCC2=O)c1 (stereo unspecified) — higher, -2.56%
- Fc1cc(CCNc2ccc3nccn3n2)c2c(c1)COCO2 — higher, 5.74%
- CN(C)C(=O)N1CC[C@H]2[C@H]1CCN2c1nncs1 — higher, -6.13%
- Cn1cc(CN2CCC(Cn3cc(-c4ccccc4)nn3)CC2)cn1 — higher, -4.28%
- Cc1cc(C)cc(C(=O)NCCS(=O)(=O)N2CCSCC2)c1 — higher, 20.5%
- O=C(N1CCC2(CC1)[C@H](O)C[C@@H]2O)C1(c2ccccc2F)CC1 — higher, 1.59%
- COCCn1cnnc1C(C)NC(=O)c1[nH]c2c(C)cc(C)cc2c1C (stereo unspecified) — higher, 14%
- c1coc(CN2CCO[C@H]3[C@H](OCC4CC4)CC[C@@H]32)c1 — lower, -10.8%
- CSCc1cc(F)ccc1CNCc1cccnc1 — higher, -6.28%
- Cc1nc(C)n(C2CCCN(C(=O)c3cc4ccccc4n3C)C2)n1 (stereo unspecified) — higher, -1.56%
- O=C(CCC1CCCC1)NCCn1nc(C2CCNC2)c2nccnc21 (stereo unspecified) — higher, 34.9%
- Cc1ccc(C(=O)NC2CCCN(C)C2)c(=O)[nH]1 (stereo unspecified) — lower, -12.5%
- O[C@@H]1C[C@@H](c2nc(-c3ccc(F)cc3)no2)N(C2CCOCC2)C1 — higher, -3.33%
- CC(=O)NCc1ccc(C(=O)N2CCCC2c2cnn(C)c2)s1 (stereo unspecified) — higher, -0.6%
- COCC(=O)N(Cc1cccc(C)c1)Cc1ccccc1OC — higher, -4.3%
- CS(=O)(=O)N1C[C@@H]2CC[C@H](C1)N(Cc1ccc3nsnc3c1)C2 — higher, 18.3%
- CN(C(=O)CN1CCCc2cc(F)cc(F)c21)c1ccccc1 — lower, -16.8%
- CCCc1nc(CN(CC)C(=O)c2ccc3[nH]cnc3c2)no1 — higher, 23.9%
- Cc1c(C(=O)N(C)C)cccc1N(C)S(C)(=O)=O — higher, 0.872%
- CC(C)NC(=O)CC(C)NCc1cc(Cl)ccc1F (stereo unspecified) — higher, -3.06%
- Cn1cc(C2CCCN2C(=O)c2cnc(-c3ncccn3)s2)cn1 (stereo unspecified) — higher, -1.78%
- COCCCn1ccc(NC2CCOCC2)n1 — lower, -7.45%
- O=C(c1ccc(=O)[nH]n1)N1CC(c2nc(Cc3ccccc3)no2)C1 — higher, -0.421%
- Cc1cnn(C2CCCN(C(=O)c3ccnc(-n4cncn4)c3)C2)c1 (stereo unspecified) — lower, -7.22%
- CN(CC1(C)COC1)C(=O)c1cc(-c2ccnn2C)nc2ccccc12 — higher, -0.845%
- COCCCNC(=O)NCc1ccc(N2CCOC(C)C2)nc1 (stereo unspecified) — higher, 17.1%
- O=C(NC1CCC1)[C@H]1C[C@@H]2CN(S(=O)(=O)c3ccccc3)C[C@H]1O2 — higher, -1.64%
- COC(=O)CNC(=O)c1sc(-c2ccc(Cl)s2)nc1C — higher, -3.49%
- CC(C)c1nnc(CN(C)C(c2ccccc2)c2ccc(F)cc2)o1 (stereo unspecified) — higher, -2.6%
- Cc1nc(C2CCCN(C(=O)c3cnn(C(C)(C)C)c3)C2)no1 (stereo unspecified) — higher, 23.3%
- CN(C)CCCNC(=O)c1nnsc1-c1ccccc1 — lower, -8.68%
- CCC(=O)N1CCN(C(=O)c2cn3ccsc3n2)[C@H]2CS(=O)(=O)C[C@H]21 — lower, -13.8%
- CCc1nc(-c2ccc(NC(=O)N3CCOCC3)cc2)no1 — higher, -3.86%
- CCOCC1CN(C(=O)c2ccnnc2)Cc2cnn(CC)c21 (stereo unspecified) — higher, -6.52%
- CC(=O)NCc1ccc(C(=O)NC2CCc3nc(C)cn3C2)o1 (stereo unspecified) — higher, -3.32%
- O=S(=O)(NCC1(O)CCOc2ccccc21)c1cccs1 (stereo unspecified) — higher, 3.15%
- Cc1cnccc1CN1CCN(C)C2(CCC(=O)N(CC3CC3)CC2)C1 (stereo unspecified) — higher, -1.45%
- CCN(Cc1ccco1)C(C)c1nc(C(C)(C)C)no1 (stereo unspecified) — higher, -3.44%
- Cc1cc(-c2cnc(NCc3ccncc3)nc2C(C)C)on1 — higher, 2.62%
- Cc1cccc(CN2CCOCC3(CCN(C4CCOCC4)C3)C2)c1 (stereo unspecified) — higher, 9.31%
- O=C1CC(c2ccc(O)cc2)c2sc(C(=O)O)c(-c3ccccc3)c2N1 (stereo unspecified) — lower, -16.3%
- CCc1nccn1CCC(=O)N1CCOC(c2ccc(F)cc2)C1 (stereo unspecified) — higher, -6.46%
- CCOc1ccc(CC(CNC(=O)c2occc2C)C(N)=O)cc1 (stereo unspecified) — higher, 6.46%
- CC(C)c1nc(CCN(C)C(=O)C2COc3ccccc3C2)no1 (stereo unspecified) — higher, -3.01%
- Cc1nc2cc(NC(=O)Cn3ncc(N4CCCC4)cc3=O)ccc2s1 — higher, -4.89%
- CC(C)C(=O)N1CCc2onc(C(=O)NCCN(C)C)c2C1 — higher, -5.11%
- Cc1ccc(CN2CC[C@H]3[C@H]2CCN3S(C)(=O)=O)s1 — higher, -6.63%
- CC(C)Cc1noc(CN2CCCC(CNS(N)(=O)=O)C2)n1 (stereo unspecified) — higher, -3.24%
- Cc1ccc(C(=O)N2CCC(c3n[nH]c(C4CC4)n3)CC2)cc1F — lower, -7.97%
- CCOCc1ccc(NC(=O)NC2CCCn3nc(CC)nc32)cc1 (stereo unspecified) — lower, -7.72%
- COc1ccc(OC)c(NC(=O)c2c(C)cn(C)c2CC(=O)O)c1 — higher, -5.28%
- Cn1cc(CN2CCC3(CC2)CC(=O)Nc2ccccc23)cn1 — higher, -1.78%
- COc1c(F)cccc1C(=O)NC(C)c1cnn(C)c1 (stereo unspecified) — lower, -8.49%
- COc1cc(CNCCn2cc(C)cn2)c2c(c1)CC(C)O2 (stereo unspecified) — lower, -8.44%
- COc1ccc(Cl)cc1-c1cc(NC(=O)C2COCCO2)[nH]n1 (stereo unspecified) — higher, -4.84%
- CC(C)NC(=O)c1noc2c1CN(Cc1cnn(C)c1)CC2 — higher, -5.58%
- CCN(C(=O)CN(C)C(c1cccc(F)c1)c1ccccn1)C1CC1 (stereo unspecified) — higher, -5.47%
- COc1ccc2c(c1)CC(NCc1cccc(NC(C)=O)c1)CC2 (stereo unspecified) — higher, -5.85%
- O=C(Nc1ccccc1)N1CCN(Cc2noc(C3CC3)n2)CC1 — lower, -7.64%
- Cc1ccc(CNC(=O)NCCCn2nc3ccccn3c2=O)s1 — higher, 30.2%
- CCCNC(=O)c1cccc(CNCc2csc(CC)n2)c1 — lower, -106%
- CN1CCC(c2cccc(NCc3nccn3C)n2)CC1 — higher, 22.4%
- CCN(Cc1ccncc1)C(=O)C(C)n1ccnc1C(C)C (stereo unspecified) — lower, -11.1%
- O=C(Cc1ccccn1)N1CCC2(CC1)CC(Oc1ccccn1)CO2 (stereo unspecified) — lower, -9.02%
- CC1(C)CC(CN2CCC3(CCC(=O)N(C4CCC4)C3)CC2)CCO1 (stereo unspecified) — lower, -9.04%
- CCCc1nc(C)cc(NCCc2nnc(N)s2)n1 — lower, -12.9%
- CCOC1COC2(CCN(c3ccccn3)CC2)C1 (stereo unspecified) — higher, -0.266%
- CCC(CC)c1cc(CNC(=O)N2CCC[C@@H]2CO)on1 — higher, 15.7%
- Cc1cnn(CCNCc2ccccc2Oc2cccnc2)c1 — higher, 28.3%
- COc1cc(N2CCCC(c3nccn3Cc3cccnc3)C2)ncn1 (stereo unspecified) — lower, -14.5%
- Cc1ccc(S(C)(=O)=O)cc1C(=O)NS(=O)(=O)c1cccs1 — higher, -5.12%
- O=C1NCCCCC1SCc1coc(-c2ccc(F)cc2)n1 (stereo unspecified) — higher, 20.1%
- O=C1COC2(CCN(Cc3cccs3)CC2)CN1c1cncnc1 — higher, 0.999%
- CCS(=O)(=O)N1C[C@@H]2COC[C@@H](Cc3nc(C)no3)[C@@H]2C1 — higher, -2.03%
- Cc1nc(C)c(C(=O)N2CCCN(Cc3cnn(C)c3)CC2)s1 — higher, -3.11%
- CCOc1ccc(C(=O)N2C[C@H]3CC[C@@H]2CN(C)C3)cc1OCC — lower, -14.6%
- CN1N=C(C(=O)N(Cc2ccco2)C2CC2)CCC1=O — lower, -9.82%
- CCN(C)c1ncnc2c1CCN(Cc1ccoc1)CC2 — lower, -20.5%
- O=C(c1csc(C2CC2)n1)N1CCCCC1Cn1cccn1 (stereo unspecified) — higher, 21.8%
- CC(C)c1nc(-c2ccnc(N3CCNCC3)n2)no1 — lower, -7.09%
- CCN1CCN(CCNc2nc3ccc(C)cc3c(=O)n2C)CC1 — higher, 11.8%
- CS(=O)(=O)NCc1ncn2c1CN(C(=O)C1CCCO1)CCC2 (stereo unspecified) — higher, 0.98%
- Cc1cccc(C(=O)N2CCN(C)CC2)c1NC(=O)c1ccncc1 — higher, 17.6%
- O=C(c1ccnnc1)N1CC[C@H](OCC2CC2)[C@@H]1Cc1ccncc1 — higher, -1.15%
- CC1=N[C@@]2(CC[C@@H]3CN(S(=O)(=O)C4CC4)C[C@@H]32)C(=O)N1CC(C)C — higher, 10.8%
- COc1ccc2c(c1)C(C(=O)N(C)CCCc1cnn(C)c1)CC(=O)N2 (stereo unspecified) — lower, -12.9%
- Cc1nc(Nc2nnc(C)s2)cc(C2CCCN2C)n1 (stereo unspecified) — higher, 7.92%
- Cn1cnnc1C1CCCN(C(=O)CCc2ccc3c(c2)OCO3)C1 (stereo unspecified) — higher, 15.2%
- CCSCC(C)NCc1cc(-c2ccco2)on1 (stereo unspecified) — lower, -10.3%
- CCOCCOc1ccc(S(=O)(=O)N2CCc3c(nc[nH]c3=O)C2)cc1 — higher, 1.59%
- CC(C)(C)c1nccc(N2CCN(C3CCS(=O)(=O)C3)CC2)n1 (stereo unspecified) — higher, -0.27%
- CC(CNC(=O)N1CCN(Cc2ccon2)CC1)N(C)C1CC1 (stereo unspecified) — higher, -1.74%
